Measured values reported in patent US20240245691A1 (Sitryx Therapeutics Limited, priority 2021, published 2024).
Like-named read-outs stand apart in the source and are kept apart here.

What was measured:
IL-1β = assay: THP-1 AlphaLISA IL-1β cytokine assay (differentiated THP-1 cells); type: cell-based; conditions: Homo sapiens, THP-1, differentiated THP-1 cells
Description: (§1) Measuring Inhibitory Effects on IL-1V Cytokine and IL-6 Output from THP-1s
(§2) The cytokine inhibition profiles of compounds of formula (I) were determined in a differentiated THP-1 cell assay. All assays were performed in RPMI-1640 growth medium (Gibco), supplemented with 10% fetal bovine serum (FBS; Gibco), 1% penicillin-streptomycin and 1% sodium pyruvate unless specified otherwise. The IL-1β and IL-6 cytokine inhibition assays were run in a background of differentiated THP-1 cells as described below. All reagents described were from Sigma-Aldrich unless specified otherwise. Compounds were prepared as 10 mM DMSO stocks.
(§3) THP-1 cells were expanded as a suspension up to 80% confluence in appropriate growth medium. Cells were harvested, suspended, and treated with an appropriate concentration of phorbol 12-myristate 13-acetate (PMA) over a 72 hr period (37° C./5% CO2).
(§4) Following 72 hrs of THP-1 cell incubation, cellular medium was removed and replaced with fresh growth media containing 1% of FBS. Working concentrations of compounds were prepared separately in 10% FBS treated growth medium and pre-incubated with the cells for 30 minutes (37° C./5% CO2). Following the 30 minute compound pre-incubation, THP-1s were treated with an appropriate concentration of LPS and the THP-1s were subsequently incubated for a 24 hr period (37° C./5% CO2). An appropriate final concentration of Nigericin was then dispensed into the THP-1 plates and incubated for 1 hour (37° C./5% CO2) before THP-1 supernatants were harvested and collected in separate polypropylene 96-well holding plates.
(§5) Reagents from each of the IL-1β and IL-6 commercial kits (Perkin Elmer) were prepared and run according to the manufacturer's instructions. Subsequently, fluorescence signal detection in a microplate reader was measured (EnVision® Multilabel Reader, Perkin Elmer).
(§6) Percentage inhibition was calculated per cytokine by normalising the sample data to the high and low controls used within each plate (+/−LPS respectively).
(§7) Dimethyl itaconate and 4-octyl itaconate were included as comparator compounds.

IL-6 = assay: THP-1 AlphaLISA IL-6 cytokine assay (differentiated THP-1 cells); type: cell-based; conditions: LPS 24 hr then Nigericin 1 hour, read-out: IL-6 (IC50)
Description: as §1, §2, §3, §4, §5, §6, §7

[1] = system: cryo-preserved hepatocytes; assay: Hepatocyte stability assay, mouse; type: in vitro ADME; conditions: mouse, hepatocytes
From the text: (§8) Defrosted cryo-preserved hepatocytes (viability>70%) were used to determine the metabolic stability of a compound via calculation of intrinsic clearance (CIint; a measure of the removal of a compound from the liver in the absence of blood flow and cell binding). Clearance data are particularly important for in vitro work as they can be used in combination with in vivo data to predict the half-life and oral bioavailability of a drug.
(§9) The metabolic stability in hepatocytes assay involved a time-dependent reaction using both positive and negative controls. The cells must be pre-incubated at 37° C. then spiked with test compound (and positive control); samples taken at pre-determined time intervals were analysed to monitor the change in concentration of the initial drug compound over 60 minutes. A buffer incubation reaction (with no hepatocytes present) acted as a negative control and two cocktail solutions, containing compounds with known high and low clearance values (verapamil/7-hydroxycoumarin and propranolol/diltiazem), acted as positive controls. • 1. The assay was run with a cell concentration of 0.5×10^6 cells/mL in Leibovitz buffer. • 2. All compounds and controls were run in duplicate. • 3. Compound concentration was 10 μM. • 4. All compounds and controls were incubated with both cells and buffer to show turnover is due to hepatic metabolism. • 5. All wells on the incubation plate had 326.7 μL of either cells or buffer added. • 6. Prior to assay, cell and buffer-only incubation plates were preincubated for 10 mins at 37° C. • 7. The assay was initiated by adding compounds, 3.3 μL of 1 mM in 10% DMSO-90% Buffer; final DMSO concentration is 0.1%. • 8. Samples were taken at regular timepoints (0, 5, 10, 20, 40, 60 min) until 60 mins. • 9. Sample volume was 40 μL and added to 160 μL of crash solvent (acetonitrile with internal standard) and stored on ice. • 10. At the end of the assay, the crash plates were centrifuged at 3500 rpm for 20 mins at 4° C. • 11. 80 μL of clear supernatant was removed and mixed with 80 μL of deionised water before being analysed by LC-MS/MS.
(§10) Raw LC-MS/MS data were exported to, and analysed in, Microsoft Excel for determination of intrinsic clearance. The percentage remaining of a compound was monitored using the peak area of the initial concentration as 100%. Intrinsic clearance and half-life values were calculated using a graph of the natural log of percentage remaining versus the time of reaction in minutes.
(§11) 4-Octyl itaconate was included as a comparator compound.

[2] = Hepatocyte stability assay, mouse; type: in vitro ADME; conditions: mouse, hepatocytes, T½
From the text: as §8, §9, §10, §11

[3] = system: cryo-preserved hepatocytes; assay: Hepatocyte stability assay, human; type: in vitro ADME; conditions: human, hepatocytes
From the text: as §8, §9, §10, §11

[4] = Hepatocyte stability assay, human; type: in vitro ADME; conditions: human, hepatocytes, T½
From the text: as §8, §9, §10, §11

[5] = system: NRF2 (nuclear factor erythroid 2-related factor 2); assay: NRF2 +/-GSH activation assay (DiscoverX PathHunter NRF2 translocation kit, U2OS cells); type: cell-based; conditions: Homo sapiens; for Emax: U2OS, normalised to dimethyl fumarate high control; for EC50: U2OS PathHunter cells, 6 hours
[6] = LPS 24 hr then Nigericin 1 hour, read-out: IL-1β (IC50)
[7] = +GSH, read-out: NRF2 activation Emax, +GSH
[8] = −GSH, read-out: NRF2 activation Emax, −GSH
[9] = +GSH, read-out: NRF2 activation EC50, +GSH
[10] = −GSH, read-out: NRF2 activation EC50, −GSH
[11] = Homo sapiens, THP-1, differentiated THP-1 cells

Structure (SMILES) | IC50 (IL-1β; [6]) | IC50 (IL-6; differentiated THP-1 cells) | Clint [1] | half-life at 10 μM [2] | Clint [3] | half-life at 10 μM [4] | EC50 [5, 9] | EC50 [5, 10] | Clint, data from repeated experiments [1] | half-life at 10 μM ([2]; data from repeated experiments) | Clint, data from repeated experiments [3] | half-life at 10 μM ([4]; data from repeated experiments) | IC50 (IL-6; [11]) | IC50 (IL-1β; footnote a: data from repeated experiments, read-out: IL-1β (IC50), data from repeated experiments) | Emax [5, 7] | Emax [5, 8]
C=C(CC(=O)NCc1ccc(Cl)cc1)C(=O)OC1CCN(S(C)(=O)=O)CC1 [Example 1, 1-(methylsulfonyl)piperidin-4-yl 4-((4-chlorobenzyl)amino)-2-methylene-4-oxobutanoate] | 12.3 µM |  | 31 μL min^−1 10^−6 cells | 1.63 h | 12 μL min^−1 10^−6 cells | 1.95 h | > 100 µM | 22.3 µM | 133 μL min^−1 10^−6 cells | 0.183 h | 31ª μL min^−1 10^−6 cells | 0.783 h |  |  | 19% | 63%
C=C(CC(=O)NC1CCCCCCC1)C(=O)OC1CCN(S(C)(=O)=O)CC1 [Example 2, 1-(methylsulfonyl)piperidin-4-yl 4-(cyclooctylamino)-2-methylene-4-oxobutanoate] | 8.5 µM |  | 119 μL min^−1 10^−6 cells | 0.983 h | 14 μL min^−1 10^−6 cells | 2 h | 41.9 µM | 24.9 µM | 156ª μL min^−1 10^−6 cells | 0.15 h | 21ª μL min^−1 10^−6 cells | 1.28 h |  |  | 90% | 127%
C=C(CC(=O)NC1(c2ccc(C(F)(F)F)cc2)CC1)C(=O)O [Example 11, 2-methylene-4-oxo-4-((1-(4-(trifluoromethyl)phenyl)cyclopropyl)amino)butanoic acid] | 8.3 µM |  | <3 μL min^−1 10^−6 cells | > 7.67 h | <3 μL min^−1 10^−6 cells | > 7.67 h |  |  |  |  |  |  | > 100 µM |  |  | 
C=C(CC(=O)NC1(c2ccc(C(F)(F)F)cc2)COC1)C(=O)O [Example 13, 2-methylene-4-oxo-4-((3-(4-(trifluoromethyl)phenyl)oxetan-3-yl)amino)butanoic acid] | 19.5 µM |  | <3 μL min^−1 10^−6 cells | > 7.67 h | 3 μL min^−1 10^−6 cells | 7.17 h |  |  |  |  |  |  | > 31.6 µM |  |  | 
C=C(CC(=O)NC1(c2ccc(C(F)(F)F)cc2)CCCC1)C(=O)O [Example 14, 2-methylene-4-oxo-4-((1-(4-(trifluoromethyl)phenyl)cyclopentyl)amino) butanoic acid] | 58.3 µM |  | 4 μL min^−1 10^−6 cells | 6.48 h | <3 μL min^−1 10^−6 cells | > 7.67 h |  |  |  |  |  |  | > 100 µM |  |  | 
C=C(CC(=O)N[C@@H](C)c1ccc(C(F)(F)F)cn1)C(=O)OC1CCN(C)CC1 [Example 32, 1-methylpiperidin-4-yl (S)-2-methylene-4-oxo-4-((1-(5-(trifluoromethyl)pyridin-2-yl)ethyl)amino)butanoate] | 8.9 µM |  | 87 μL min^−1 10^−6 cells | 0.333 h | 12 μL min^−1 10^−6 cells | 2.05 h | > 100 µM | 46.2 µM |  |  |  |  |  |  | 12% | 58%

Now from value to molecule, other results behind:

IC50 (IL-1β; [6]) | IC50 (IL-6; differentiated THP-1 cells) | Clint [1] | half-life at 10 μM [2] | Clint [3] | half-life at 10 μM [4] | EC50 [5, 9] | EC50 [5, 10] | Clint, data from repeated experiments [1] | half-life at 10 μM ([2]; data from repeated experiments) | Clint, data from repeated experiments [3] | half-life at 10 μM ([4]; data from repeated experiments) | IC50 (IL-6; [11]) | IC50 (IL-1β; footnote a: data from repeated experiments, read-out: IL-1β (IC50), data from repeated experiments) | Structure (SMILES) | Emax [5, 7] | Emax [5, 8]
31 µM | > 100 µM | 4 μL min^−1 10^−6 cells | 6.67 h | <3 μL min^−1 10^−6 cells | > 7.67 h |  |  |  |  |  |  |  |  | C=C(C(=O)O)C(C)C(=O)N[C@@H](C)c1ccc(C(F)(F)F)cc1 (single isomer, unassigned; isomer 1) [Example 54] |  | 
8.2 µM |  | 21 μL min^−1 10^−6 cells | 1.25 h | <3 μL min^−1 10^−6 cells | > 7.67 h |  |  |  |  |  |  | > 100 µM |  | C=C(CC(=O)NC(c1ccc(C(F)(F)F)cc1)C(F)(F)F)C(=O)O (stereo not shown) [Example 7, 2-methylene-4-oxo-4-((2,2,2-trifluoro-1-(4-(trifluoromethyl)phenyl)ethyl)amino)butanoic acid] |  | 
16.6 µM |  | <3 μL min^−1 10^−6 cells | > 7.67 h | <3 μL min^−1 10^−6 cells | > 7.67 h |  |  |  |  |  |  | > 100 µM |  | C=C(CC(=O)NC(c1ccc(C(F)(F)F)cc1)C1CC1)C(=O)O (stereo not shown) [Example 10, 4-((cyclopropyl(4-(trifluoromethyl)phenyl)methyl)amino)-2-methylene-4-oxobutanoic acid] |  | 
3.8 µM |  | 7 μL min^−1 10^−6 cells | 4.1 h | 6 μL min^−1 10^−6 cells | 4.68 h |  |  |  |  |  |  | > 56.2 µM | 4.9 µM | C=C(CC(=O)N[C@@H](C)c1ccc(Br)cc1)C(=O)O [Example 16, (S)-4-((1-(4-bromophenyl)ethyl)amino)-2-methylene-4-oxobutanoic acid] |  | 
13.9 µM |  | 16 μL min^−1 10^−6 cells | 1.58 h | 8 μL min^−1 10^−6 cells | 3.72 h |  |  |  |  |  |  | > 31.6 µM |  | C=C(CC(=O)N[C@@H](C)c1ccc(SC(F)(F)F)cc1)C(=O)O [Example 17] |  | 
8.8 µM |  | 4 μL min^−1 10^−6 cells | 6.7 h | 4 μL min^−1 10^−6 cells | 7.28 h |  |  |  |  |  |  | > 31.6 µM |  | C=C(CC(=O)N[C@@H](C)c1ccc(C(F)(F)F)c(F)c1)C(=O)O [Example 19, (S)-4-((1-(3-fluoro-4-(trifluoromethyl)phenyl)ethyl)amino)-2-methylene-4-oxobutanoic acid] |  | 
4.2 µM |  | 6 μL min^−1 10^−6 cells | 3.98 h | <3 μL min^−1 10^−6 cells | > 7.67 h |  |  |  |  |  |  |  |  | CC(C)/C=C(\CC(=O)N[C@@H](C)c1ccc(C(F)(F)F)cc1)C(=O)O [Example 44, (S,E)-4-methyl-2-(2-oxo-2-((1-(4-(trifluoromethyl)phenyl)ethyl)amino)ethyl)pent-2-enoic acid] |  | 
2.5 µM |  | 37 μL min^−1 10^−6 cells | 0.667 h | 7 μL min^−1 10^−6 cells | 3.35 h |  |  |  |  |  |  |  |  | C[C@H](NC(=O)C/C(=C\CCc1ccccc1)C(=O)O)c1ccc(C(F)(F)F)cc1 [Example 46, (S,E)-2-(2-oxo-2-((1-(4-(trifluoromethyl)phenyl)ethyl)amino)ethyl)-5-phenylpent-2-enoic acid] |  | 
